Source: patent US9586921B2, “Burdock fruit extract containing arctigenin at high content and process for producing same” (Kracie Pharma, Ltd., priority 2009, dated 2017)

Key:
CAPAN-1 Xenografts = experiment: Evaluation of the anticancer activity in the model animal of tumor (CAPAN-1 Xenografts); format: in vivo, nude mouse; conditions: CAPAN-1 xenograft, 50 μg per mouse by mouth five times a week, one month after beginning of dosage, FIG. 5
Description: (§1) [Test 3] (the Evaluation of the Anticancer Activity in the Model Animal of Tumor) (Method for Test) The subcutaneous dorsales of nude mouse (BALB-cAJ nu/nu; Nippon Kurea) which is the donor was inoculated the human pancreas cancer cell line, CAPAN-1 or PSN-1, and the obtained tumor mass of the donor mouse was transplanted into the subcutaneous dorsales of the recipient mouse to generate the model animal of tumor. […] The anticancer activity was evaluated by measuring the size of the tumor mass of subcutaneous dorsales sequentially.

PSN-1 Xenografts = experiment: Evaluation of the anticancer activity in the model animal of tumor (PSN-1 Xenografts); format: in vivo, nude mouse; conditions: PSN-1 xenograft, 50 μg per mouse by mouth five times a week, one month after beginning of dosage, FIG. 6
Description: as §1

[1] = system: pancreas cancer cell line PANC-1; conditions: PANC-1, undernutrition condition; non-patent document 1; cited from earlier work
CAPAN-1 = experiment: Cytotoxic evaluation using the cultured cell (WST-8 viability), CAPAN-1; format: cell-based, human; conditions: CAPAN-1, DMEM (normal nutritional condition) and NDM (nutrient starvation)
Description: (§2) [Test 2] (Cytotoxic Evaluation Using the Cultured Cell)
(§3) The pancreas cancer cell line, CAPAN-1, PANC-1 and PSN-1 were plated to the 96 well plate, and they were pre-cultured in DMEM culture media in 37° C., 5% CO2 and 95% Air under normal nutritional condition for 24 hours. After washing these cells with PBS, the extracts which were extracted by the different methods in DMEM culture media (ending D in the graph) which is normal nutritional condition and in NDM culture media (ending I in the graph) which are a nutrient starvation condition (Example 2 and comparative example 2 in the graph) were added to each well including constant concentration of arctigenin, and incubated for 24 hours. The cells were washed in PBS again, 100 μL of DMEM culture media including 10% WST-8 was added to be reacted for two hours and measured the absorbance of 450 nm by the microplate reader, and viability of these cells were evaluated.

PANC-1 = experiment: Cytotoxic evaluation using the cultured cell (WST-8 viability), PANC-1; format: cell-based; conditions: PANC-1, DMEM (normal nutritional condition) and NDM (nutrient starvation)
Description: as §2, §3

PSN-1 = experiment: Cytotoxic evaluation using the cultured cell (WST-8 viability), PSN-1; format: cell-based, human; conditions: PSN-1, DMEM (normal nutritional condition) and NDM (nutrient starvation)
Description: as §2, §3

For `COc1cc(C[C@H]2C(=O)OC[C@@H]2Cc2ccc(OC)c(OC)c2)ccc1O` [arctigenin], the “antitumor effect (size of the tumor mass)” value (CAPAN-1 Xenografts) is listed as “antitumor effect was also obtained”, the “antitumor effect (size of the tumor mass)” value (PSN-1 Xenografts) is listed as “antitumor effect was also obtained” and the “effect in screen for release of viability of tumor cells in the undernutrition condition” value [1] is listed as “effective”.

In the case of `COc1ccc(C[C@H]2COC(=O)[C@@H]2Cc2ccc(O[C@@H]3O[C@H](CO)[C@@H](O)[C@H](O)[C@H]3O)c(OC)c2)cc1OC` [arctiin], the anticancer activity (CAPAN-1) is reported as “in neither condition”, the anticancer activity (PANC-1) is reported as “in neither condition” and the anticancer activity (PSN-1) is reported as “in neither condition”.
